Earlier results on two compounds are cited in paper PMC4682187, “Fusarinine C, a novel siderophore‐based bifunctional chelator for radiolabeling with Gallium‐68” (Journal of Labelled Compounds & Radiopharmaceuticals, 2015).

For data set [1] the following is noted: ^68Ga complex of TAFC. The text has this:
To evaluate this hypothesis, a RGD peptide targeting the ...

For data set [2] the following is noted: dilution of DFO; at nanomolar level (<50 nM) DFO does not act as a good chelating agent for gallium. The text has this: Caraco et al. reported that dilution of DFO, an acyclic analogue of FSC, could cause the breakdown of the ^67Ga^3+–DFO complex.

As for `CC(=O)NC1CCCN(O)C(=O)/C=C(/C)CCOC(=O)C(NC(C)=O)CCCN(O)C(=O)/C=C(/C)CCOC(=O)C(NC(C)=O)CCCN(O)C(=O)/C=C(/C)CCOC1=O` (centres unmarked) [TAFC, triacetylfusarinine], the Metabolic stability result in data set [1] is given as “excellent metabolic stabilities”.

As for `CC(=O)N(O)CCCCCNC(=O)CCC(=O)N(O)CCCCCNC(=O)CCC(=O)N(O)CCCCCN` [^67Ga^3+–DFO complex, desferoxamine B, metal not drawn], the “Stability of the complex on dilution” value in data set [2] was “breakdown”.
